Results on 27 substances are retold here after PMC3355094 (PLoS Pathogens, 2012).

One assay has as its system CCL1. Nature of the assay: Glycan array analysis of CCL1 (CFG mammalian glycan array V4.2). In kind it is binding, Coprinopsis cinerea. The note with it: Alexa Fluor 488 labeled CCL1 200 µg/ml, array V4.2, average of triplicates. As for the experimental part:
(§1) Purified CCL1 and CCL2 were fluorescently labeled with Alexa Fluor 488 (Invitrogen) according to the manufacturer's protocol and used (at a final concentration of 200 µg/ml) to probe versions 4.2 and 3.1, respectively, of the mammalian glycan array offered by Core H of the Consortium for Functional Glycomics (CFG).

Another assay concerns CCL2. Nature of the assay: Glycan array analysis of CCL2 (CFG mammalian glycan array V3.1). Type of assay: binding, Coprinopsis cinerea. The note with it: Alexa Fluor 488 labeled CCL2 200 µg/ml, array V3.1, average of triplicates. The method, then: as §1
Another assay concerns the target CCL2 wild-type (Coprinopsis cinerea, UniProt B3GA02). Type of assay: binding. As to conditions: carbohydrate titrated to CCL2 wild-type.

Sequence of CCL2 wild-type (B3GA02 2-142 limits assumed): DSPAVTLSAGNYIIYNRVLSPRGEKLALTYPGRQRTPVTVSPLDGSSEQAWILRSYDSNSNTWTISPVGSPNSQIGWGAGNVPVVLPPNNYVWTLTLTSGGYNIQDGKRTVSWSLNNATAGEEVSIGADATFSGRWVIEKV

Regarding “Man1-3(Man1-6)Man1-4GlcNAc1-4GlcNAc-Sp13”, the “RFU (relative fluorescence units)” value in the assay with CCL1 is 116 RFU; in the assay with CCL2, 525.3 RFU.

“Neu5Ac2-6Gal1-4GlcNAc1-2Man1-3(Neu5Ac2-6Gal1-4GlcNAc1-2Man1-6)Man1-4GlcNAc1-4GlcNAc-Sp12”: the results for the “RFU (relative fluorescence units)” value in the assay on CCL1 and in the assay with CCL2 were 122 RFU and 183.9 RFU, respectively.

As for Neu5Ac2-8Neu5Ac2-8Neu5AcSp8, the “RFU (relative fluorescence units)” value in the assay on CCL2 turned out to be 66.6 RFU.

Regarding Neu5Ac2-8Neu5Ac-Sp17, the “RFU (relative fluorescence units)” value with CCL2 amounted to 155.0 RFU.

Turning to Neu5Acα2,3Galβ1,4Glc, the NMR titration result on CCL2 wild-type is given as “no binding”.

On to Neu5Gc2-6Gal1-4GlcNAc-Sp8, for which the “RFU (relative fluorescence units)” value in the assay with CCL2 is 182.6 RFU.

For NeuAc2-3[6OSO3]Gal1-4GlcNAc–Sp8, the “RFU (relative fluorescence units)” value in the assay with CCL2 is on record as 40316.6 RFU.

Regarding [3OSO3]Gal1-3(Fuc1-4)GlcNAc–Sp8, the “RFU (relative fluorescence units)” value in the assay on CCL2 was 628.7 RFU.

Regarding [3OSO3]Gal1-3GalNAc-Sp8, the “RFU (relative fluorescence units)” value stood at 118 RFU in the assay on CCL1 and 216.8 RFU in the assay with CCL2.

For the substance [3OSO3]Gal1-3GlcNAc–Sp8, the “RFU (relative fluorescence units)” value in the assay with CCL2 was found to be 403.9 RFU.

[3OSO3]Gal1-4(6OSO3)Glc–Sp0: the “RFU (relative fluorescence units)” value in the assay with CCL2 is 151.3 RFU.

Regarding [3OSO3]Gal1-4(6OSO3)Glc–Sp8, the “RFU (relative fluorescence units)” value with CCL2 was 1039.1 RFU.

With [3OSO3]Gal1-4(Fuc1-3)GlcNAc–Sp8, in the assay with CCL2, the “RFU (relative fluorescence units)” value was 265.1 RFU.

[3OSO3]Gal1-4Glc-Sp8: the results for the “RFU (relative fluorescence units)” value with CCL1 and in the assay with CCL2 were 29 RFU and 152.3 RFU, respectively.

For [3OSO3]Gal1-4GlcNAc-Sp8, the “RFU (relative fluorescence units)” value was 110 RFU in the assay with CCL1 and 110.8 RFU in the assay with CCL2.

Consider [3OSO3]Gal1-4GlcNAc–Sp0, for which the “RFU (relative fluorescence units)” value with CCL2 was 115.6 RFU.

In the case of [3OSO3]Gal1-4[6OSO3]GlcNAc-Sp8, the “RFU (relative fluorescence units)” value came to 333 RFU in the assay with CCL1 and 101.0 RFU with CCL2.

For [3OSO3]Gal–Sp8, the “RFU (relative fluorescence units)” value in the assay with CCL2 is on record as 75.5 RFU.

Regarding [3OSO3][6OSO3]Gal1-4GlcNAc-Sp0, the “RFU (relative fluorescence units)” value stood at 25 RFU in the assay on CCL1 and 193.4 RFU in the assay with CCL2.

As to [3OSO3][6OSO3]Gal1-4[6OSO3]GlcNAc-Sp0, the “RFU (relative fluorescence units)” value was 3 RFU in the assay with CCL1 and 367.7 RFU in the assay with CCL2.

Consider [4OSO3]Gal1-4GlcNAc-Sp8, for which the “RFU (relative fluorescence units)” value with CCL1 was determined as 17 RFU; with CCL2 it was 350.4 RFU.

[4OSO3][6OSO3]Gal1-4GlcNAc-Sp0: the “RFU (relative fluorescence units)” value in the assay with CCL1 is 5 RFU; in the assay on CCL2 it was 222.7 RFU.

For the substance [6OSO3]Gal1-4GlcNAc–Sp8, the “RFU (relative fluorescence units)” value with CCL2 was determined as 133.9 RFU.

[6OSO3]Gal1-4Glc–Sp0: in the assay with CCL2, the “RFU (relative fluorescence units)” value is listed as 307.4 RFU.

On to [6OSO3]Gal1-4Glc–Sp8, for which, in the assay with CCL2, the “RFU (relative fluorescence units)” value is on record as 269.4 RFU.

In the case of [6OSO3]Gal1-4[6OSO3]Glc-Sp8, the “RFU (relative fluorescence units)” value in the assay with CCL1 turned out to be 20 RFU; in the assay on CCL2 it was 298.1 RFU.

Turning to [6OSO3]GlcNAc–Sp8, the “RFU (relative fluorescence units)” value with CCL2 is listed as 141.7 RFU.
